Assay results reported in patent US12030896B2, “PIKfyve inhibitors” (Mayo Foundation for Medical Education and Research, priority 2018, dated 2024).
Like-named read-outs stand apart in the source and are kept apart here.

Assay: Pharmacokinetic study of Example 1 in mouse (IV, IP, PO)
Assay type: in vivo, Male C57BL/6 Mouse
Details: male, C57BL/6, mouse, plasma; for AUC(0-inf): read-out: AUC0-inf; for Cmax: read-out: Cmax; for MRT inf: read-out: MRT0-inf; for MRT last: read-out: MRT0-last; for Tmax: read-out: Tmax; for concentration at 0.25 h: 0.250 h; for concentration at 0.5 h: 0.500 h; for C0: read-out: C0; for Vd: read-out: Vdss; for bioavailability: calculated using AUC0-inf or AUC0-last with nominal dose
Protocol: Species: Male C57BL/6 Mouse, fasted.
PK/PD testing of the compound was performed in mice, after IP, IV, or oral administration.

[1] = ip, 30 mg/kg, IP 30 mg/kg, individual mice M4-M6
[2] = ip, 30 mg/kg, IP 30 mg/kg, mean
[3] = iv, 5 mg/kg, IV 5 mg/kg, individual mice M1-M3
[4] = po, 30 mg/kg, PO 30 mg/kg, individual mice M7-M9
[5] = po, 30 mg/kg, PO 30 mg/kg, mean

Cc1ccc(Nc2nc(N/N=C/c3c[nH]c4ccccc34)nc(N3CCOCC3)n2)cc1 [Example 1, (E)-4-(2-((1H-indol-3-yl)methylene)hydrazinyl)-6-morpholino-N-(p-tolyl)-1,3,5-triazin-2-amine]
concentration at 6 h [1]: 97.8 ng/mL
concentration at 6 h [2]: 105 ng/mL
concentration at 24 h [1]: 35 ng/mL
concentration at 24 h [2]: 36.6 ng/mL
AUC(0-t) [1]: 2520 ng·h/mL
AUC(0-inf) [1]: 3060 ng·h/mL
Cmax [1]: 443 ng/mL
MRT inf [1]: 13 h
MRT last [1]: 7.2 h
half-life (ip, 30 mg/kg, IP 30 mg/kg, individual mice M4-M6, read-out: T1/2 (converted)): 10.9 h
Tmax [1]: 1 h
AUC(0-t) [2]: 2850 ng·h/mL
AUC(0-inf) [2]: 3390 ng·h/mL
Cmax [2]: 534 ng/mL
MRT inf [2]: 12 h
MRT last [2]: 6.91 h
half-life (ip, 30 mg/kg, IP 30 mg/kg, mean, read-out: T1/2 (converted)): 10.1 h
Tmax [2]: 1.33 h
half-life (ip, 30 mg/kg, IP, single 30 mg/kg dose, read-out: half life (converted)): 10.1 h
concentration at 5 min [3]: 1300 ng/mL
concentration at 5 min (iv, 5 mg/kg, IV 5 mg/kg, mean): 1630 ng/mL
concentration at 0.25 h [3]: 1140 ng/mL
concentration at 0.25 h (iv, 5 mg/kg, IV 5 mg/kg, mean): 1310 ng/mL
concentration at 0.5 h [3]: 832 ng/mL
concentration at 0.5 h (iv, 5 mg/kg, IV 5 mg/kg, mean): 1010 ng/mL
concentration at 1 h [3]: 529 ng/mL
concentration at 1 h (iv, 5 mg/kg, IV 5 mg/kg, mean): 599 ng/mL
concentration at 2 h [3]: 176 ng/mL
concentration at 2 h (iv, 5 mg/kg, IV 5 mg/kg, mean): 183 ng/mL
concentration at 4 h [3]: 17.4 ng/mL
concentration at 4 h (iv, 5 mg/kg, IV 5 mg/kg, mean): 16.8 ng/mL
concentration at 6 h [3]: 5.13 ng/mL
concentration at 6 h (iv, 5 mg/kg, IV 5 mg/kg, mean): 4.2 ng/mL
AUC(0-t) [3]: 1370 ng·h/mL
clearance [3]: 60.5 mL/min/kg
AUC(0-inf) [3]: 1380 ng·h/mL
C0 [3]: 1390 ng/mL
MRT inf [3]: 0.959 h
MRT last [3]: 0.936 h
half-life (iv, 5 mg/kg, IV 5 mg/kg, individual mice M1-M3, read-out: T1/2 (converted)): 0.71 h
Vd [3]: 3.48 L/kg
AUC(0-t) (iv, 5 mg/kg, IV 5 mg/kg, mean): 1580 ng·h/mL
clearance (iv, 5 mg/kg, IV 5 mg/kg, mean): 53.4 mL/min/kg
AUC(0-inf) (iv, 5 mg/kg, IV 5 mg/kg, mean): 1580 ng·h/mL
C0 (iv, 5 mg/kg, IV 5 mg/kg, mean): 1820 ng/mL
MRT inf (iv, 5 mg/kg, IV 5 mg/kg, mean): 0.899 h
MRT last (iv, 5 mg/kg, IV 5 mg/kg, mean): 0.882 h
half-life (iv, 5 mg/kg, IV 5 mg/kg, mean, read-out: T1/2 (converted)): 0.667 h
Vd (iv, 5 mg/kg, IV 5 mg/kg, mean): 2.9 L/kg
concentration at 0.25 h [4]: 52.7 ng/mL
concentration at 0.25 h [5]: 59.1 ng/mL
concentration at 0.5 h [4]: 167 ng/mL
concentration at 0.5 h [5]: 122 ng/mL
concentration at 1 h [5]: 92 ng/mL
concentration at 2 h [5]: 30.5 ng/mL
concentration at 4 h [5]: 7.49 ng/mL
concentration at 6 h [4]: 11 ng/mL
concentration at 6 h [5]: 10 ng/mL
AUC(0-inf) [4]: 312 ng·h/mL
Cmax [4]: 167 ng/mL
MRT inf [4]: 2.1 h
MRT last [4]: 1.69 h
half-life (po, 30 mg/kg, PO 30 mg/kg, individual mice M7-M9, read-out: T1/2 (converted)): 1.31 h
Tmax [4]: 0.5 h
AUC(0-t) [5]: 188 ng·h/mL
AUC(0-inf) [5]: 211 ng·h/mL
Cmax [5]: 122 ng/mL
MRT inf [5]: 2.4 h
MRT last [5]: 1.61 h
half-life (po, 30 mg/kg, PO 30 mg/kg, mean, read-out: T1/2 (converted)): 1.54 h
Tmax [5]: 0.5 h
bioavailability (IP 30 mg/kg): 35.7%
bioavailability (PO 30 mg/kg): 2.22%
